Experimental findings from patent publication US9932328B2, “3-(6-alkoxy-5-chlorobenzo[d]isoxazol-3-yl)propanoic acid useful as kynurenine monooxygenase inhibitors” (GlaxoSmithKline Intellectual Property Development Limited, priority 2014, dated 2018) are described below.

For this assay, the target named is T1, human KMO (Homo sapiens, UniProt O15229).
T1 construct: Full length human KMO was amplified by PCR; made in house; host or cells: Spodoptera frugiperda (Sf9) cells, baculovirus; used as purified membranes
The experiment in a line: KMO MS Rapidfire functional assay (RapidFire high-throughput mass spectrometry, Method 1 or Method 2). Format: biochemical. The following applies: in at least one of the MS Rapidfire assays (Method 1 or 2), isolated human KMO-membranes, 10 μM Kynurenine, 200 μM NADPH, values exemplary only; for IC50: read-out: median pIC50 (converted). The text has this:
KMO inhibition can be determined by MS Rapidfire assay performed on the human cloned enzyme as described herein.
L-Kynurenine (Kyn), 3-hydroxy-DL-kynurenine (3-HK), β-Nicotinamide adenine dinucleotide 2′-phosphate reduced tetrasodium salt hydrate (NADPH), 4-(2-hydroxyethyl)piperazine-1-ethanesulfonic acid (Hepes), DL-dithiothreitol (DTT), ethylenediaminetetraacetic acid (EDTA), CHAPS and trifluoroacetic acid (TFA) were purchased from Sigma-Aldrich Ltd. (Gillingham, Dorset, UK). HPLC-grade acetonitrile and formic acid were supplied by Fisher Scientific (Loughborough, UK).
Full length human KMO was amplified by PCR from pcDNA5/FRT/V5-His-TOPO/hKMO (vector supplied by the University of Edinburgh) and cloned into pGEX6P-1 (GE Healthcare) using BamH1 and Sal1 restriction sites. DNA encoding the N-terminal glutathione-S-transferase (GST) tag, followed by a Pre-Scission protease cleavage site, and the full length KMO was amplified by PCR from pGEX6P-1-KMO and cloned into pFastbac1 (Invitrogen) using Xbal and EcoR1 restriction sites.
pFastbac1 GST-KMO was transposed into the baculovirus genome using the BAC-to-BAC technology (Invitrogen) and bacmid DNA was prepared and transfected into Spodoptera frugiperda (Sf9) cells using Cellfectin II (Invitrogen).
A P1 virus stock was generated from a single clone and used to infect 3× 1.5 L cultures of Sf9 cells in 3 L Corning Fernbach flasks. […] Cells were harvested after 48 hours and disrupted by blending in 50 mM Hepes, pH 7.4, 1 mM EDTA buffer containing protease inhibitors. A low speed spin (400 g) was used to remove cell debris, followed by a high speed spin (75 000 g) to pellet the membranes. The membranes were purified in a discontinuous sucrose density gradient by re-suspending in 10% (w/v) sucrose and layering over 40% (w/v) sucrose, both in the above buffer. This was centrifuged at 150 000 g and the purified membranes were taken from the interface, collected by centrifugation at 100 000 g, resuspended in buffer and aliquoted for storage at −80° C.
11 point, 3-fold serial dilutions of test compounds were prepared in DMSO and 100 nL of these solutions were dispensed into 384-well V-base polypropylene plates (Greiner Bio-one, Stonehouse, UK) using an Echo 555 acoustic dispenser (Labcyte, Sunnyvale, Calif.). This gave a final assay concentration range between 100 μM and 1.7 nM in 10 μL final assay volume (see below). 100 nL DMSO was dispensed into columns 6 and 18 for high and low controls, respectively, with prior inactivation of the enzyme in column 18 by pre-dispense of 30 μL of 0.5% (v/v) TFA.
Conditions for the assay of human KMO using isolated KMO-membranes were 50 mM Hepes, pH 7.5, 2 mM DTT, 1 mM EDTA, 100 μM CHAPS, 200 μM NADPH, 10 μM Kynurenine and 8 μg/ml KMO-membranes in a total reaction volume of 10 μL.
Assays were performed by initially dispensing 5 μL of a 2× Enzyme solution (16 μg/ml KMO-membranes in 50 mM Hepes, pH 7.5, 2 mM DTT, 2 mM EDTA, 200 μM CHAPS) into plates containing 100 nL compounds and incubating for 10 min at ambient temperature. Reactions were initiated by addition of 5 μL of 2× Substrate solution (400 μM NADPH, 20 μM Kynurenine in 50 mM Hepes, pH 7.5, 2 mM DTT) and incubated for 2 h at room temperature before quenching the reaction with 30 μL of 0.5% (v/v) TFA. Plates were centrifuged at 2500 rpm for 10 min before analysis. All additions were made using a Multidrop Combi dispenser (Thermo Fisher Scientific).
Quenched assay plates were transferred to a high-throughput RapidFire200 integrated autosampler/solid-phase extraction (SPE) system (Agilent Technologies, Wakefield, Mass.).

Where “and” joins values, the source holds several entries; their conditions need not be identical. Identical values can stand only once. Bounds are passed on as bounds.

T1 sequence (O15229 whole entry): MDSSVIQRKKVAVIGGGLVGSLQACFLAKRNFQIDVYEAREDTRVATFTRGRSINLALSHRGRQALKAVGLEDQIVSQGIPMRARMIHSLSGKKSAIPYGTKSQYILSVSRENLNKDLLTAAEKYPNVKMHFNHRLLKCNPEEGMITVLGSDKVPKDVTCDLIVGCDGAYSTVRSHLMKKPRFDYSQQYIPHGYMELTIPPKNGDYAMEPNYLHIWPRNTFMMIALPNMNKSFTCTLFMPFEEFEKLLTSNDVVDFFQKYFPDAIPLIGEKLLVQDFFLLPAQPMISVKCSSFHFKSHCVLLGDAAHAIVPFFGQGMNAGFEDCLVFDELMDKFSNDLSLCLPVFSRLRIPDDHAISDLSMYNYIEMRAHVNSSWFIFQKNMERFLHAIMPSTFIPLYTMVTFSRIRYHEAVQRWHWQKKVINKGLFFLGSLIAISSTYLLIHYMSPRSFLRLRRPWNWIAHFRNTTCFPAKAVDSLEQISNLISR

`CCc1cccc(C(C)Oc2cc3onc(CCC(=O)O)c3cc2Cl)n1` (single isomer, unassigned) [Example 31, 3-{5-Chloro-6-[1-(6-ethylpyridin-2-yl)ethoxy]-1,2-benzoxazol-3-yl}propanoic acid]: the IC50 was 10 nM.

Regarding `O=C(O)CCc1noc2cc(OCc3cccnn3)c(Cl)cc12` [Example 13, 3-(5-chloro-6-(pyridazin-3-ylmethoxy)benzo[d]isoxazol-3-yl)propanoic acid], the IC50 was no more than 10 nM.

As to `CCC(Oc1cc2onc(CCC(=O)O)c2cc1Cl)c1ccc(Cl)cn1` (single isomer, unassigned) [Example 27, 3-(5-chloro-6-(1-(5-chloropyridin-2-yl)propoxy)benzo[d]isoxazol-3-yl)propanoic acid], the IC50 is no more than 10 nM.

For the compound `CCc1coc(C(C)Oc2cc3onc(CCC(=O)O)c3cc2Cl)n1` (single isomer, unassigned) [Example 41, 3-{5-Chloro-6-[1-(4-ethyl-1,3-oxazol-2-yl)ethoxy]-1,2-benzoxazol-3-yl}propanoic acid], the IC50 was 10 nM.

As to `CC(Oc1cc2onc(CCC(=O)O)c2cc1Cl)c1cccnn1` (single isomer, unassigned) [Example 22, 3-(5-chloro-6-(1-(pyridazin-3-yl)ethoxy)benzo[d]isoxazol-3-yl)propanoic acid], the IC50 is no more than 10 nM.

With `CC[C@H](Oc1cc2onc(CCC(=O)O)c2cc1Cl)c1ncccn1` (single isomer, unassigned) [Example 43], the IC50 is 10 nM.

As to `O=C(O)CCc1noc2cc(OCc3ccccn3)c(Cl)cc12` [Example 2, 2-amino-2-(hydroxymethyl)propane-1,3-diol 3-(5-chloro-6-(pyridin-2-ylmethoxy)benzo[d]isoxazol-3-yl)propanoate], the IC50 is no more than 10 nM.

In the case of `Cc1ccc([C@@H](C)Oc2cc3onc(CCC(=O)O)c3cc2Cl)nn1` [Example 20, (R)-3-(5-chloro-6-(1-(6-methylpyridazin-3-yl)ethoxy)benzo[d]isoxazol-3-yl)propanoic acid], the “median pIC50” value amounted to 8.7 and the IC50 is no more than 10 nM.

As for `CCC(Oc1cc2onc(CCC(=O)O)c2cc1Cl)c1ncc(Cl)cn1` (single isomer, unassigned) [Example 51, 3-{5-Chloro-6-[1-(5-chloropyrimidin-2-yl)propoxy]-1,2-benzoxazol-3-yl}propanoic acid], the IC50 was 10 nM.

Turning to `CCC(Oc1cc2onc(CCC(=O)O)c2cc1Cl)c1cccnn1` (single isomer, unassigned) [Example 46, 3-{5-Chloro-6-[1-(pyridazin-3-yl)propoxy]-1,2-benzoxazol-3-yl}propanoic acid], the IC50 is 10 nM.

Take `Cc1ncc(C(C)Oc2cc3onc(CCC(=O)O)c3cc2Cl)o1` (single isomer, unassigned) [Example 35, 3-{5-Chloro-6-[1-(2-methyl-1,3-oxazol-5-yl)ethoxy]-1,2-benzoxazol-3-yl}propanoic acid]: the IC50 was 10 nM.

For `CCc1ccc(C(C)Oc2cc3onc(CCC(=O)O)c3cc2Cl)nc1` (single isomer, unassigned) [Example 29, 3-{5-Chloro-6-[1-(5-ethylpyridin-2-yl)ethoxy]-1,2-benzoxazol-3-yl}propanoic acid], the IC50 is 10 nM.

As to `CCC(Oc1cc2onc(CCC(=O)O)c2cc1Cl)c1ccc(C)cn1` (single isomer, unassigned) [Example 23, 3-(5-chloro-6-(1-(5-methylpyridin-2-yl)propoxy)benzo[d]isoxazol-3-yl)propanoic acid], the IC50 is no more than 10 nM.

As to `CC(Oc1cc2onc(CCC(=O)O)c2cc1Cl)c1ncc(Cl)cn1` (single isomer, unassigned) [Example 37, 3-{5-Chloro-6-[1-(5-chloropyrimidin-2-yl)ethoxy]-1,2-benzoxazol-3-yl}propanoic acid], the IC50 is 10 nM.

As for `CCC(Oc1cc2onc(CCC(=O)O)c2cc1Cl)c1ccccn1` (single isomer, unassigned) [Example 25, 3-(5-chloro-6-(1-(pyridin-2-yl)propoxy)benzo[d]isoxazol-3-yl)propanoic acid], the IC50 is ≤ 10 nM and 3.98 nM.

With `Cc1cnc(C(C)Oc2cc3onc(CCC(=O)O)c3cc2Cl)nc1` (single isomer, unassigned) [Example 39, 3-{5-Chloro-6-[1-(5-methylpyrimidin-2-yl)ethoxy]-1,2-benzoxazol-3-yl}propanoic acid], the IC50 was 10 nM.

Consider `O=C(O)CCc1noc2cc(OCc3ccc(Cl)cn3)c(Cl)cc12` [Example 7, 2-amino-2-(hydroxymethyl)propane-1,3-diol 3-(5-chloro-6-((5-chloropyridin-2-yl)methoxy)benzo[d]isoxazol-3-yl)propanoate], for which the IC50 is 2.51 nM.

`CCC(Oc1cc2onc(CCC(=O)O)c2cc1Cl)c1ncc(C)cn1` (single isomer, unassigned) [Example 49, 3-{5-Chloro-6-[1-(5-methylpyrimidin-2-yl)propoxy]-1,2-benzoxazol-3-yl}propanoic acid]: the IC50 was 10 nM.

Consider `CCC(Oc1cc2onc(CCC(=O)O)c2cc1Cl)c1ccc(C)nn1` (single isomer, unassigned) [Example 47, 3-{5-Chloro-6-[1-(6-methylpyridazin-3-yl)propoxy]-1,2-benzoxazol-3-yl}propanoic acid], for which the IC50 was 10 nM.
